Measurements from US11072581B2, “N-acyl-arylsulfonamide derivatives as aminoacyl-tRNA synthetase inhibitors” (Oxford Drug Design Limited, priority 2015, dated 2021).
Counter-ions that a name gives are not always drawn.

What was measured:
[1] = molecular target: T1, SauVRS (valyl-tRNA synthetase from Staphylococcus aureus) (Staphylococcus aureus, UniProt Q2FXR8); test: aaRS aminoacylation assay (ATP consumption), SauVRS; format: biochemical; details: i.a. = inactive at a concentration below 50 uM
T1 construct: made in house; host or cells: Escherichia coli M15
T1 sequence (Q2FXR8 1-876): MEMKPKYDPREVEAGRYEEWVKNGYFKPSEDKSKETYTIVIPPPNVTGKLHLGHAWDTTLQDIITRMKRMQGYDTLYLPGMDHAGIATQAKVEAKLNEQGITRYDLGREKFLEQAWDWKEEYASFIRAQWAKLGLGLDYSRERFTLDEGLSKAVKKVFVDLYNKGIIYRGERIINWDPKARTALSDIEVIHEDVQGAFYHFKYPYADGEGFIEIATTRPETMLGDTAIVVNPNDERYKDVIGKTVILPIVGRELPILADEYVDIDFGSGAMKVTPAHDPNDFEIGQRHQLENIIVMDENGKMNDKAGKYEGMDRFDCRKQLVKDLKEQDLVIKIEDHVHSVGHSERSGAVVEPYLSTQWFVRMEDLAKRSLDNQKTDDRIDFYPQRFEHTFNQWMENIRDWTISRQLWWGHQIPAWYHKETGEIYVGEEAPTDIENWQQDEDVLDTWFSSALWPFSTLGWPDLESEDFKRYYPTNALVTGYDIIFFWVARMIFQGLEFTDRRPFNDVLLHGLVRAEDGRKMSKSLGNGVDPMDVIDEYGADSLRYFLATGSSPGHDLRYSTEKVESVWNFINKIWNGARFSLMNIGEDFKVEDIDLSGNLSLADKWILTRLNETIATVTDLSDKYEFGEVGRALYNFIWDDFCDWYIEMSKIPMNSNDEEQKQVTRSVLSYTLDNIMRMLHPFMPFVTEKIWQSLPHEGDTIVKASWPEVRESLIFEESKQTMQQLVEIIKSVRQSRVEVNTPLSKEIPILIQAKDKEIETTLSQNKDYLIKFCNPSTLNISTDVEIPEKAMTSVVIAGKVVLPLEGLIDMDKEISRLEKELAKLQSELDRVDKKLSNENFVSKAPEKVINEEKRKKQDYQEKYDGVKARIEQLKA
Experimental: (§1) The compounds have been tested for antibacterial activity in vitro as aminoacyl-tRNA synthetases (aaRS) inhibitors following the following process.
(§2) Leucyl-, valyl- and isoleucyl-tRNA synthetases (LRS, VRS and IRS, respectively) from Escherichia coli (Eco) and Staphylococcus aureus (Sau).
(§3) Escherichia coli M15 cells transformed with plasmid pQE-60, or pQE-70, containing the open-reading frame sequence of one targeted aaRS were induced with 1 mM IPTG (Isopropyl β-D-1-thiogalactopyranoside) for 3 h at 37° C. Bacterial cells were harvested and lysed with 20 mM NaH2PO4 (pH 8.0), 200 mM NaCl, 10 mM imidazole and protease inhibitor cocktail (Roche). Pathogenic aaRS was purified by nickel affinity standard chromatography. Protein concentration was determined by spectrophotometry.
(§4) tRNA^Leu, tRNA^Val and tRNA^Ile from E. coli and S. aureus were transcribed in vitro for 4 h at 37° C. using T7 RNA polymerase. Transcription reaction contained 40 mM Tris-HCl (pH 8.0), 22 mM MgCl2, 1 mM spermidine, 5 mM DTT, 0.01% Triton X-100, 4 mM GTP, 4 mM ATP, 4 mM UTP, 4 mM CTP, 16 mM GMP, […] T7 RNA polymerase and 150 μg BstNI digested plasmid. Once finished, the reaction was applied on a 6% polyacrylamide-8 M urea denaturing gel to purify the transcribed tRNA and discard any impurities. Purified tRNA was quantified with Nanodrop 2000 (Thermo Scientific).
(§5) The aminoacylation reaction catalyzed by aminoacyl-tRNA synthetases (aaRS) takes place in two steps. In the first step, aaRS activates its cognate amino acid with ATP; and in the second step the activated amino acid is loaded to its corresponding tRNA. This reaction can be summarized as follows: ARS+aa+ATP=ARS-aa-AMP+PPi ARS-aa-AMP+tRNA=aa-tRNA+AMP+ARS [2] (ARS, Aminoacyl-tRNA synthetase; aa, amino acid; ARS-aa-AMP, enzyme-bound to aminoacyl-adenylate; aa-tRNA, aminoacyl-tRNA).
(§6) The activity of the pathogenic aaRSs was monitored by measuring the ATP consumption rate, since this consumption is directly proportional to the activity of the aaRS. If the tested compound, at a single point concentration of 50 μM, is inhibiting the aminoacylation reaction, there is a decrease in the ATP consumption, compared to the control reaction without compound, allowing the calculation of an inhibition ratio.
(§7) When the inhibition ratio for a given compound was above 80%, IC50 determination was performed with the same enzymatic assay (using the commercial kit Kinase RR from BioThema AB, Sweden) in the presence of serial dilutions of inhibitor. Known inhibitors of LRS, VRS or IRS were used as a positive control of the assay. The IC50 was calculated based on nonlinear regression analysis.

[2] = molecular target: T2, SauLRS (leucyl-tRNA synthetase from Staphylococcus aureus) (Staphylococcus aureus, UniProt Q2FXH2); test: aaRS aminoacylation assay (ATP consumption), SauLRS; format: biochemical; details: i.a. = inactive at a concentration below 50 uM; for IC50: read-out: IC50 SauLRS
T2 construct: made in house; host or cells: Escherichia coli M15
T2 sequence (Q2FXH2 1-805): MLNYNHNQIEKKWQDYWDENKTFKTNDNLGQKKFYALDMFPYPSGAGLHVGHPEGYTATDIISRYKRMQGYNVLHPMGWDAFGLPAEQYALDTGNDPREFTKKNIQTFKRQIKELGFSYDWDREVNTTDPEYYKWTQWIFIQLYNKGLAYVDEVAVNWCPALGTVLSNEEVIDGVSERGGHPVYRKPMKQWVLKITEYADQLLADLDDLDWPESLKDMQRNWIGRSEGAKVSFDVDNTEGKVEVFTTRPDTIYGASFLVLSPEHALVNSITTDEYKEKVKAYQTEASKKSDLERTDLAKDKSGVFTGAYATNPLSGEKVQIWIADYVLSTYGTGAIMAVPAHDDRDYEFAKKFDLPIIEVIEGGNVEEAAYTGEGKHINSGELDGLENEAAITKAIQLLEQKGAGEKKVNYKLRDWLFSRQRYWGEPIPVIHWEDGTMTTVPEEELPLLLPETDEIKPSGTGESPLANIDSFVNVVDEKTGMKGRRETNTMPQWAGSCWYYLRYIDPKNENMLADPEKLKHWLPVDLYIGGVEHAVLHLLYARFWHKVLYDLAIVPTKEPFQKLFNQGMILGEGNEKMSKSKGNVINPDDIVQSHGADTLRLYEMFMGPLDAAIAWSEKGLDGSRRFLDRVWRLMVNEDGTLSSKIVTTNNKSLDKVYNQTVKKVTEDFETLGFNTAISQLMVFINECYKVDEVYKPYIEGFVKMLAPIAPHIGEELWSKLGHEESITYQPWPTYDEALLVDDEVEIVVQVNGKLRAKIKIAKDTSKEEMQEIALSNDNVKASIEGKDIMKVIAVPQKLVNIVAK
Experimental: as §1, §2, §3, §4, §5, §6, §7

## N[C@@H](CC1CC1)C(=O)NS(=O)(=O)c1cccc(-c2ccccc2)c1 (racemic) [Compound 5.10]
[1]
  IC50 SauVRS: i.a
[2]
  IC50 SauLRS: i.a

## CC(C)C[C@H](N)C(=O)NS(=O)(=O)c1ccccc1 [Compound 5.1, (S)-2-amino-4-methyl-N-(phenylsulfonyl)pentanamide hydrochloride]
[1]
  IC50 SauVRS: i.a.
[2]
  IC50: 5.4 µM

## CC(C)C[C@H](N)C(=O)NS(=O)(=O)c1ccc(Oc2ccccc2)cc1 [Compound 5.2]
[1]
  IC50 SauVRS: i.a
[2]
  IC50: 16.3 µM

## CC(C)C[C@H](N)C(=O)NS(=O)(=O)c1ccccc1-c1ccccc1 [Compound 5.3]
[1]
  IC50 SauVRS: i.a
[2]
  IC50: 14.8 µM

## CC(C)C[C@H](N)C(=O)NS(=O)(=O)c1cccc(Cl)c1 [Compound 5.4]
[1]
  IC50 SauVRS: i.a
[2]
  IC50: 0.92 µM

## CC(C)C[C@H](N)C(=O)NS(=O)(=O)c1ccccc1Cl [Compound 5.5]
[1]
  IC50 SauVRS: i.a
[2]
  IC50: 13.2 µM

## CC(C)C[C@H](N)C(=O)NS(=O)(=O)c1ccccc1F [Compound 5.6]
[1]
  IC50 SauVRS: i.a
[2]
  IC50: 17 µM

## CCCCc1ccc(S(=O)(=O)NC(=O)[C@@H](N)CC(C)C)cc1 [Compound 5.7]
[1]
  IC50 SauVRS: i.a
[2]
  IC50: 4.9 µM

## CC(C)C[C@H](N)C(=O)NS(=O)(=O)c1cccc(-c2ccccc2)c1 [Compound 5.9]
[1]
  IC50 SauVRS: i.a
[2]
  IC50: 0.65 µM

## CC(C)C[C@H](N)C(=O)NS(=O)(=O)c1ccc(-c2ccccc2)cc1 [Compound 5.11]
[1]
  IC50 SauVRS: i.a
[2]
  IC50: 11.3 µM

## CC(C)C[C@H](N)C(=O)NS(=O)(=O)c1c(C(C)C)cc(C(C)C)cc1C(C)C [Compound 5.12]
[1]
  IC50 SauVRS: i.a
[2]
  IC50 SauLRS: i.a

## CC(C)C[C@H](N)C(=O)NS(=O)(=O)c1cccc2ccccc12 [Compound 5.13]
[1]
  IC50 SauVRS: i.a
[2]
  IC50: 16.1 µM

## CC(C)C[C@H](N)C(=O)NS(=O)(=O)c1ccc2ccccc2c1 [Compound 5.14]
[1]
  IC50 SauVRS: i.a
[2]
  IC50: 1 µM

## CC[C@H](C)[C@H](N)C(=O)NS(=O)(=O)c1ccc2ccccc2c1 [Compound 5.15]
[1]
  IC50 SauVRS: i.a
[2]
  IC50 SauLRS: i.a

## CC(C)C[C@H](N)C(=O)NS(=O)(=O)c1cccc2c(N(C)C)cccc12 [Compound 5.16, (S)-2-amino-N-((5-(dimethylamino)naphthalen-1-yl)sulfonyl)-4-methylpentanamide hydrochloride]
[1]
  IC50 SauVRS: i.a
[2]
  IC50 SauLRS: i.a

## COc1ccc2cc(S(=O)(=O)NC(=O)[C@@H](N)CC(C)C)ccc2c1 [Compound 5.17]
[1]
  IC50 SauVRS: i.a
[2]
  IC50: 2 µM

## CC(C)C[C@H](N)C(=O)NS(=O)(=O)c1cccc2cccnc12 [Compound 5.19]
[1]
  IC50 SauVRS: i.a
[2]
  IC50: 16.8 µM

## CC(C)C[C@H](N)C(=O)NS(=O)(=O)c1cccc2ccncc12 [Compound 5.21]
[1]
  IC50 SauVRS: i.a
[2]
  IC50: 3.42 µM

## CC(C)C[C@H](N)C(=O)NS(=O)(=O)c1ccc(Br)c2ccncc12 [Compound 5.22, trifluoroacetate]
[1]
  IC50 SauVRS: i.a
[2]
  IC50: 11.5 µM

## CC(C)C[C@H](N)C(=O)NS(=O)(=O)c1cccc2cc(C(N)=O)ncc12 [Compound 5.24, 8-(N-(L-Leucyl)sulfamoyl)isoquinoline-3-carboxamide]
[1]
  IC50 SauVRS: i.a
[2]
  IC50: 8.5 µM

## CC(C)C[C@H](N)C(=O)NS(=O)(=O)c1cccc2c1OCCC2 [Compound 5.25]
[1]
  IC50 SauVRS: i.a
[2]
  IC50: 14.1 µM

## CC(C)C[C@H](N)C(=O)NS(=O)(=O)c1cccc2c1CNCC2 [Compound 5.26, (S)-2-amino-4-methyl-N-((1,2,3,4-tetrahydroisoquinolin-8-yl)sulfonyl) pentanamide trifluoroacetate]
[1]
  IC50 SauVRS: i.a
[2]
  IC50: 20 µM

## CNc1cc(-c2cccc(S(=O)(=O)NC(=O)[C@@H](N)CC(C)C)c2)nc(N)n1 [Compound 5.27]
[1]
  IC50 SauVRS: i.a
[2]
  IC50: 0.26 µM

## CC(C)C[C@H](N)C(=O)NS(=O)(=O)c1cccc(-c2cc(N(C)C)nc(N)n2)c1 [Compound 5.28]
[1]
  IC50 SauVRS: i.a
[2]
  IC50: 4.8 µM
